{"source": "patent US9914910B2", "about": "“Methods of preserving and protecting pancreatic beta cells and treating or preventing diabetes by inhibiting NOX-1” (Eastern Virginia Medical School, priority 2013, dated 2018)", "key": {"INS-1 cells [1]": {"test_system": "INS-1 cells", "assay": "Glucose-stimulated insulin secretion (GSIS) after PIC", "format": "cell-based, rat", "conditions": "INS-1, 1 mM vs 16 mM glucose, p<0.05", "experimental": "Treated islets or cells then were washed with PBS and placed in 1 mL serum-free Kreb-Ringer buffer (115 mM NaCl, 24 mM NaHCO3, 5 mM KCl, 1 mM MgCl2, and 25 mM HEPES) for 1 hour at 370 C. Low (1 mM) or high (16 mM) glucose was added for […] for 30 min. Insulin levels in media were measured by ELISA (Mercodia, Winston Salem, N.C.) as per the manufacturer's instructions.\nFIG. 4: Treatment of homogeneous rat beta cell line (INS-1) with pro-inflammatory cytokines (PIC) (TNFα, IL-1β, IFNγ) disrupts beta cell function measured by glucose-stimulated-insulin-secretion. Control (non cytokine-treated) cells respond to glucose elevation ([…]) by increasing insulin secretion. Insulin levels are plotted. In the presence of inflammatory cytokines (PIC) this response is lost and the dysfunctional cells ‘leak’ insulin. […] (*p<0.05, **p<0.01)."}, "INS-1 cells [2]": {"test_system": "INS-1 cells", "assay": "ROS measurement (DCF-DA) after pro-inflammatory cytokine cocktail (PIC)", "format": "cell-based, rat", "experimental": "INS-1 cells were cultured in RPMI-1640 media (Life Technologies, Grand Island, N.Y.) supplemented with 10% fetal calf serum, 1% penicillin/streptomycin, 10 mM Hepes, 2 mM Lglutamine, 1 mM sodium pyruvate, and 0.05 mM 2-mercaptoethanol at 370 C with 5% CO2.\nCells treated for 1 hour were then washed with PBS prior to addition of 10 μM 6-Carboxy-2′,7′-Dichlorodihydrofluorescein Diacetate, Di(Acetoxymethyl ester) (DCF-DA, Life Technologies) for 30 min at 370 C. Post PBS wash cells were incubated at 370 C for 1 hour. Prior to fluorescence measurement (SpectraMax Molecular Devices, Sunnyvale, Calif.) at excitation 480 nm: emission 530 nm.\nElevation of cellular ROS in beta-cell lines INS-1 (rat beta-cell line) and βTC-3 (mouse beta-cell line) was evaluated by conversion of fluorescent substrate DCF-DA. Following one hour stimulation with a pro-inflammatory cytokine cocktail (PIC; IL-1β, TNF-α, and IFN-γ) detectable ROS elevated from control levels of 0.05±0.02 and 0.09±0.03 (INS-1 and βTC-3 respectively) to 0.25±0.04 and 0.23±0.03 (INS-1 and βTC-3 respectively). This increase was significant p<0.05 and p<0.01 (INS-1 and βTC-3 respectively)."}, "human colon cancer cells": {"test_system": "human colon cancer cells", "conditions": "cited from earlier work"}, "βTC-3 cells": {"test_system": "βTC-3 cells", "assay": "Apoptosis by YO-PRO-1 fluorescence microscopy after PIC", "format": "cell-based, mouse", "conditions": "βTC-3, PIC 24 hours, p<0.001", "experimental": "B. Fluorescence microscopy: Stimulated cells or islets were washed in cold PBS, and incubated for 30 mins at 40 C with cold PBS containing 1 μg/mL propidium iodide and 0.1 μM YO-PRO-1 (Life Technologies). For cell lines, five randomly fields per well were analyzed. For islets, all islets (>1000 um2 in size) were analyzed. Densitometric fluorescent value for YO-PRO-1 (green channel) was normalized to background and expressed proportional to cell occupied area (phase contrast). Images captured across three channels with Axiophot (Zeiss, Jena, Germany) with Axiovision (Zeiss) image analysis."}, "NOX-1": {"target": "T1, NOX-1 (Homo sapiens, UniProt Q9Y5S8)", "T1 sequence (Q9Y5S8 1-564)": "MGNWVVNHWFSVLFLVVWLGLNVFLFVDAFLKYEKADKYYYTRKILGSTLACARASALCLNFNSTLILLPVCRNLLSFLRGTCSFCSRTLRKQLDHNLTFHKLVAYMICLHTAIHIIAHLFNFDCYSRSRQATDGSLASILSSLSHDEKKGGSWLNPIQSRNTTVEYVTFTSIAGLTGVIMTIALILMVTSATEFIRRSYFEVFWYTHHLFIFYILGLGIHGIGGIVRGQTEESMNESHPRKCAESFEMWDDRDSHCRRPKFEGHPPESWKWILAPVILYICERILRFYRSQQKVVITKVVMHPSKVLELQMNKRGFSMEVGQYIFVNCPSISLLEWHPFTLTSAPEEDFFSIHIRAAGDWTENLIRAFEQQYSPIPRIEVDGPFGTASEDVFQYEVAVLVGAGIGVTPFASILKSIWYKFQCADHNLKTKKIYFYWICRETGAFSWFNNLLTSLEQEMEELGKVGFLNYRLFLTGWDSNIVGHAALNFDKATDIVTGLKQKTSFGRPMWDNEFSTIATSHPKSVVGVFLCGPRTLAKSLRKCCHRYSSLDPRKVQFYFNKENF", "T1 sequence (P13498 1-195 partner)": "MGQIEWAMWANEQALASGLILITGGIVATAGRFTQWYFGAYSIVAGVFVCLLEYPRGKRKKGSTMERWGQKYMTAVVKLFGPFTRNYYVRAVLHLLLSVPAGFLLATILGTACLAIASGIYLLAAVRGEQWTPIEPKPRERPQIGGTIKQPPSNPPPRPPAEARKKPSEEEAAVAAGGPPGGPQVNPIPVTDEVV", "conditions": "cited from earlier work"}, "[3]": {"test_system": "NOX-1 protein in βTC-3 cells", "assay": "NOX-1 protein expression (western blot)", "format": "cell-based", "conditions": "Mus musculus, 24 h; read-out: inhibition of PIC induction of NOX-1 protein", "experimental": "(§1) Cells were then lysed (1× PBS, 1% Triton X-100, 1 mM PMSF, 1 mM Halt Protease Inhibitor Cocktail (Pierce, Rockford, Ill.), 1 mM NaVO4), and incubated on ice for 20 min. Cleared (14,000 rpm, 15 min, 4° C.) lysate was collected. Proteins separated on 10% Tris-glycine gels (Life Technologies) were transferred onto PDVF (Immobilon-FL, Millipore, Billerca, Mass.). Membranes were blocked in TBS/0.05% Tween (Sigma) plus 5% non-fat milk (Bio-Rad) for 1 hr at room temperature before incubation overnight at 40 in primary antibody with gentle shaking. The membrane was washed between antibody cycles four times for 5 min each in TBS/Tween (0.05%). Primary antibodies: 1:250 Anti-NOX-1 or 1:1000 β-actin 1 (Abcam, Cambridge, Mass.).\n(§2) Signal detected with 1:2000 HRP-secondary antibody for 1 hour (GE Healthcare, Buckinghamshire, UK) SuperSignal Chemiluminescent Substrate (Thermo Scientific, Rockford, Ill.) on a ChemiDoc XRS System (Bio-Rad). Densitometry was determined using Image J (http://rsb-web.nih.gov/i/)."}, "[4]": {"test_system": "NOX-1 protein in INS-1 cells", "assay": "NOX-1 protein expression (western blot)", "format": "cell-based", "conditions": "Rattus norvegicus, INS1, 24 h; read-out: inhibition of PIC induction of NOX-1 protein", "experimental": "as §1, §2"}}, "data": [{"smiles": "CC(=O)c1ccc2c(c1)Nc1ccccc1S2", "note": "[ML171, 2-acetylphenothiazine]", "values": [{"measurement": "glucose-stimulated insulin secretion with PIC", "setting": "INS-1 cells [1]", "value": "restoring the glucose-sensitive insulin response"}, {"measurement": "inhibition of PIC-induced ROS (DCFDA conversion)", "setting": "INS-1 cells [2]; INS-1, PIC 1 hour", "value": "dose dependent inhibition"}, {"measurement": "concentration of maximal protection from PIC-induced ROS", "setting": "INS-1 cells [2]; analogous results for INS-1 and βTC-3", "value": 10, "unit": "µM"}, {"measurement": "NOX-1 activity in human colon cancer cells", "setting": "human colon cancer cells", "value": "inhibits NOX-1 activity"}, {"measurement": "PIC-induced apoptosis (YO-PRO-1)", "setting": "βTC-3 cells", "value": "apoptosis was significantly decreased"}, {"measurement": "inhibition of NOX-1 (in words)", "setting": "NOX-1", "value": "nanomolar inhibitor"}, {"measurement": "specificity for NOX-1 inhibition over NOX-2 inhibition and other NOX isoforms", "setting": "NOX-1", "value": "greater than 30 fold"}, {"measurement": "inhibition at 1 µM", "setting": "[3]", "value": 100, "unit": "%"}, {"measurement": "inhibition at 1 µM", "setting": "[4]", "value": 100, "unit": "%"}]}]}
